Experimental data taken from patent US9150592B2, “Heterocyclic nuclear hormone receptor modulators” (AbbVie Inc., priority 2012, dated 2015).

Columns and labels:
[1] = system: IL-6 in A549 cells stimulated with IL-1β; experiment: A549 Cell Assay to Measure Inflammation Markers (inhibition of IL-1β-induced IL-6); format: cell-based; conditions: A549 Cell Assay to Measure Inflammation Markers; intrinsic activity, Emax class ranges
Experimental: A549 Cell Assay to Measure Inflammation Markers
Further dilution (1:250) of compound was made into assay medium and 50 μL/well diluted drug or DMSO/media control was applied to cells. After a 1 h pre-incubation in a temperature, CO2, and humidity controlled incubator, set to 37° C., 50 μL/well of 4 ng/mL IL-1β diluted in assay media, was applied to cultures. Assay plates, with a final volume of 200 μL/well and final concentrations of 0.1% DMSO and 1 ng/mL IL-1β were returned to incubator for a […] incubation period. Next, plates were spun at 183 g (1000 rpm in Beckman/Coulter Allegra 6KR centrifuge) for 10 min. Cell-free supernatant (150 μL/well) was collected and IL-6 was measured by MSD kit, following protocol of manufacturer, and using MSD SECTOR Imager 6000 instrument. […] Results were represented as IC50 and Emax values.

[2] = target: T1, Glucocorticoid Receptor (GR) (Homo sapiens, UniProt P04150); experiment: GR Fluorescence Polarization Assay (PolarScreen Glucocorticoid Receptor Competitor Assay, Red); conditions: IC50 class ranges, read-out: GR binding
T1 construct: purchased Invitrogen P2893
T1 sequence (P04150 1-777): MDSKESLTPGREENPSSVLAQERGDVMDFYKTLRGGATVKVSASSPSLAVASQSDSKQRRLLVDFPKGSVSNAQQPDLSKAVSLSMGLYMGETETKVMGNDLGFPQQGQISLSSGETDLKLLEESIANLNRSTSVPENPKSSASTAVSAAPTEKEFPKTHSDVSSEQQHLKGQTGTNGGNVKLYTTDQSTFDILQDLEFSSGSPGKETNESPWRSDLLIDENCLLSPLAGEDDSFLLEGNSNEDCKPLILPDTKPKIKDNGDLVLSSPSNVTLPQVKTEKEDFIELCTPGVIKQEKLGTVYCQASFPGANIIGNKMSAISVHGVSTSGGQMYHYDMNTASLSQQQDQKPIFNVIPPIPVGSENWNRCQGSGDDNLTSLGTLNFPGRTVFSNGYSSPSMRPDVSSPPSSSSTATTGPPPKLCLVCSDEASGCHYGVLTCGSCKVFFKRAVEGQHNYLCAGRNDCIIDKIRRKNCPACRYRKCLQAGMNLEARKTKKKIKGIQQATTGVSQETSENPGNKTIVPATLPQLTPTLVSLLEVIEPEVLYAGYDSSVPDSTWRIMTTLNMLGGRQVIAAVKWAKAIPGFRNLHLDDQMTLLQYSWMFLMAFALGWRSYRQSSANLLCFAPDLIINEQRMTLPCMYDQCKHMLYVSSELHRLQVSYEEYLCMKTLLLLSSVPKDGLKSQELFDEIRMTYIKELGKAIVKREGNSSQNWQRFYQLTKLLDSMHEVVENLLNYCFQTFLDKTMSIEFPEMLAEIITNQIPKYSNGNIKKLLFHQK
Experimental: GR Fluorescence Polarization Assay
Fluorescence polarization assays were carried out using the PolarScreen™ Glucocorticoid Receptor Competitor Assay, Red from Invitrogen (P2893). The assay buffer was prepared according to the manufacturer's protocol and used to dilute the fluorescent glucocorticoid and GR. Compounds were prepared and serial diluted 1:4 in DMSO. Compound, fluorescent glucocorticoid and GR were added in a final volume of 20 μL and incubated overnight at 4° C. Fluorescent polarization was measured on the PerkinElmer Envision®.

Row | Structure (SMILES) | A549 Emax [1] | IC50 [2] [nM]
1 | Cc1cc(Cl)ccc1C1SCCNc2c1c(-c1ccccn1)nn2C (single isomer, unassigned) [(4S)-4-(4-chloro-2-methyl-phenyl)-1-methyl-3-(2-pyridyl)-4,6] | B (a compound with Emax>60%) | 
2 | Cc1cc(Cl)ccc1C1SCC(C)Nc2c1c(-c1ccccn1)nn2C (single isomer, unassigned) [(4S,7S)-4-(4-chloro-2-methylphenyl)-1,7-dimethyl-3-(pyridin-] | D (a compound with Emax<50%) | 
3 | CCn1nc(-c2ccccn2)c2c1NCCSC2c1ccc(C(=O)Nc2cccnc2C)cc1C (single isomer, unassigned) [M.61, 4-(1-ethyl-3-(pyridin-2-yl)-4,6,7,8-tetrahydro-1H-pyrazolo[3,4-e][1,4]thiazepin-4-yl)-3-methyl-N-(2-methylpyridin-3-yl)benzamide] |  | 100 to 1000
4 | CCn1nc(-c2ccccn2)c2c1N[C@@H](C)CS[C@@H]2c1ccc(C#CCN(C)C)cc1C (single isomer, unassigned) [M.64, 3-(4-(1-ethyl-7-methyl-3-(pyridin-2-yl)-4,6,7,8-tetrahydro-1H-pyrazolo[3,4-e][1,4]thiazepin-4-yl)-3-methylphenyl)-N,N-dimethylprop-2-yn-1-amine] |  | 1000 to 10000
5 | Cc1cc(C#CCO)ccc1[C@H]1SC[C@@H](C)Nc2c1c(-c1ccccn1)nn2C (single isomer, unassigned) [M.69, 3-(4-(1,7-dimethyl-3-(pyridin-2-yl)-4,6,7,8-tetrahydro-1H-pyrazolo[3,4-e][1,4]thiazepin-4-yl)-3-methylphenyl)prop-2-yn-1-ol] |  | 100 to 1000
6 | Cc1cc(Br)ccc1C1CCC(=O)Nc2c1c(C)nn2C (stereo not shown) [AA.2] |  | 1000 to 10000
7 | CCn1nc(-c2ccccn2)c2c1NC(=O)CCC2c1ccc(Br)cc1C (stereo not shown) [AA.3] |  | < 100
8 | Cc1ccc(Oc2ccc(C3SCCNc4c3c(C)nn4C)cc2)cc1 (stereo not shown) [D.75] |  | 1000 to 10000
9 | Cc1ccc(Oc2ccc(C3SC(C)(C)CNc4c3c(C)nn4C)cc2)cc1 (stereo not shown) [D.78] |  | 100 to 1000
10 | COc1cccc(C2SCCNc3c2c(C)nn3C)c1 (stereo not shown) [D.81] |  | 1000 to 10000
11 | Cn1nc(-c2cccnc2)c2c1NCCSC2c1ccc(Cl)cc1Cl (stereo not shown) [D.86] |  | 1000 to 10000
12 | Cc1ccc(-c2nn(C)c3c2C(c2ccc(Cl)cc2Cl)SCCN3)cc1 (stereo not shown) [D.87] |  | 100 to 1000
13 | Cn1nc(-c2ccc(C(C)(C)C)cc2)c2c1NCCSC2c1ccc(Cl)cc1Cl (stereo not shown) [D.88] |  | 1000 to 10000
14 | Cn1nc(-c2ccc(Cl)c(Cl)c2)c2c1NCCSC2c1ccc(Cl)cc1Cl (stereo not shown) [D.89] |  | 100 to 1000
15 | Cn1nc(C(F)(F)F)c2c1NCCSC2c1ccc(Cl)cc1Cl (stereo not shown) [D.91] |  | 1000 to 10000
16 | Cn1nc(-c2ccc(F)cc2F)c2c1NCCSC2c1ccc(Cl)cc1Cl (stereo not shown) [D.93] |  | 100 to 1000
17 | Cn1nc(-c2ccc(OC(F)(F)F)cc2)c2c1NCCSC2c1ccc(Cl)cc1Cl (stereo not shown) [D.95] |  | 1000 to 10000
18 | Cc1nn(C)c2c1C(c1ccccn1)SCCN2 (stereo not shown) [D.96] |  | > 10000
19 | COc1ccc(C2SCCNc3c2c(C)nn3C)cc1 (stereo not shown) [D.97] |  | 1000 to 10000
20 | COc1ccccc1C1SCCNc2c1c(C)nn2C (stereo not shown) [D.98] |  | > 10000
21 | Cc1nn(C)c2c1C(c1cccnc1)SCCN2 (stereo not shown) [D.99] |  | > 10000
22 | Cc1nn(C)c2c1C(c1ccc(Cl)cc1)SC(CCO)CN2 (stereo not shown) [D.100] |  | < 100
23 | Cc1nn(C)c2c1C(c1cc[nH]n1)SCCN2 (stereo not shown) [D.102] |  | > 10000
24 | COC(=O)c1ccc(C2SCCNc3c2c(-c2ccccn2)nn3C)cc1 (stereo not shown) [E.2, methyl 4-[1-methyl-3-(2-pyridyl)-4,6,7,8-tetrahydropyrazolo[3,4-e][1,4]thiazepin-4-yl]benzoate] |  | 1000 to 10000
25 | COC(=O)c1ccc(C2SC(C)(C)CNc3c2c(C)nn3C)c(C)c1 (stereo not shown) [E.4, methyl 3-methyl-4-(1,3,6,6-tetramethyl-7,8-dihydro-4H-pyrazolo[3,4-e][1,4]thiazepin-4-yl)benzoate] |  | 100 to 1000
26 | COC(=O)c1ccc(-c2nn(C)c3c2C(c2ccc(Cl)cc2Cl)SCCN3)nc1 (stereo not shown) [E.6, methyl 6-[4-(2,4-dichlorophenyl)-1-methyl-4,6,7,8-tetrahydropyrazolo[3,4-e][1,4]thiazepin-3-yl]pyridine-3-carboxylate] |  | 1000 to 10000
27 | Cc1cc(C#N)ccc1C1SC(C)CNc2c1c(C)nn2C (stereo not shown) [G.11] |  | 1000 to 10000
28 | Cc1ccc(C(=O)Nc2cccnc2C)cc1C1SC(C)(C)CNc2c1c(C1CC1)nn2C (stereo not shown) [H.2] |  | > 10000

Row | Structure (SMILES) | A549 Emax [1] | IC50 [2] [nM]
29 | CNC(=O)c1ccc(C2SCCNc3c2c(-c2ccccn2)nn3C)c(Cl)c1 (stereo not shown) [I.2] |  | 100 to 1000
30 | CNC(=O)c1ccc(-c2nn(C)c3c2C(c2ccc(Cl)cc2Cl)SCCN3)nc1 (stereo not shown) [I.3] |  | 1000 to 10000
31 | Cn1nc(-c2ccc(C(N)=O)cn2)c2c1NCCSC2c1ccc(Cl)cc1Cl (stereo not shown) [I.5] |  | 1000 to 10000
32 | Cc1cc(Br)ccc1[C@H]1SC[C@@H](C)Nc2c1c(-c1nnco1)nn2C [M.63, 2-(4-(4-bromo-2-methylphenyl)-1,7-dimethyl-4,6,7,8-tetrahydro-1H-pyrazolo[3,4-e][1,4]thiazepin-3-yl)-1,3,4-oxadiazole] |  | 100 to 1000
33 | Cc1cc(C(=O)Nc2cccnc2C)ccc1C1CCC(=O)Nc2c1c(C)nn2C (stereo not shown) [O.1, 4-(1,3-Dimethyl-7-oxo-1,4,5,6,7,8-hexahydropyrazolo[3,4-b]azepin-4-yl)-3-methyl-N-(2-methylpyridin-3-yl)benzamide] |  | 1000 to 10000
34 | CCn1nc(-c2ccccn2)c2c1N[C@@H](C)CS[C@H]2c1ccc(CCC(C)(C)N)cc1C [Q.1] |  | 100 to 1000
35 | CCn1nc(-c2ccccn2)c2c1NCCSC2c1ccc(C(=O)Nc2nnn[nH]2)cc1C (stereo not shown) [S.6] |  | 100 to 1000
36 | CCn1nc(-c2ccccn2)c2c1NCCSC2c1ccc(C(=O)Nc2onc(C)c2C#N)cc1C (stereo not shown) [S.7] |  | 100 to 1000
37 | Cn1nc(-c2ccccn2)c2c1NCCSC2c1ccc(-c2cncc(S(C)(=O)=O)c2)cc1Cl (stereo not shown) [U.1, 4-(2-Chloro-4-(5-(methylsulfonyl)pyridin-3-yl)phenyl)-1-methyl-3-(pyridin-2-yl)-4,6,7,8-tetrahydro-1H-pyrazolo[3,4-e][1,4]thiazepine tris(trifluoroacetate)] |  | 1000 to 10000
38 | Cn1nc(-c2ccccn2)c2c1NCCSC2c1ccc(-c2cncnc2)cc1Cl (stereo not shown) [U.2] |  | 1000 to 10000
39 | Cn1nc(-c2ccccn2)c2c1NCCSC2c1ccc(-c2ccnnc2)cc1Cl (stereo not shown) [U.3] |  | 1000 to 10000
40 | Cn1nc(-c2ccccn2)c2c1NCCSC2c1ccc(-c2cncc(C#N)c2)cc1Cl (stereo not shown) [U.4] |  | 100 to 1000
41 | Cn1nc(-c2ccccn2)c2c1NCCSC2c1ccc(-c2cnn(CCN3CCOCC3)c2)cc1Cl (stereo not shown) [U.5] |  | 1000 to 10000
42 | Cn1nc(-c2ccccn2)c2c1NCCSC2c1ccc(-c2cnn(C3CCCCO3)c2)cc1Cl (stereo not shown) [U.6] |  | 100 to 1000
43 | Cn1nc(-c2ccccn2)c2c1NCCSC2c1ccc(-c2cncc(C(N)=O)c2)cc1Cl (stereo not shown) [U.7] |  | 1000 to 10000
44 | CNC(=O)c1cncc(-c2ccc(C3SCCNc4c3c(-c3ccccn3)nn4C)c(Cl)c2)c1 (stereo not shown) [U.8] |  | 1000 to 10000
45 | Cn1nc(-c2ccccn2)c2c1NCCSC2c1ccc(-c2ccncc2C#N)cc1Cl (stereo not shown) [U.9] |  | 100 to 1000
46 | Cn1nc(-c2ccccn2)c2c1NCCSC2c1ccc(-c2cnccc2C#N)cc1Cl (stereo not shown) [U.10] |  | 100 to 1000
47 | Cn1nc(-c2ccccn2)c2c1NCCSC2c1ccc(-c2cnc3nccnc3c2)cc1Cl (stereo not shown) [U.11] |  | 1000 to 10000
48 | Cn1nc(-c2ccccn2)c2c1NCCSC2c1ccc(-c2cncc(C(=O)N3CCOCC3)c2)cc1Cl (stereo not shown) [U.12] |  | 100 to 1000
49 | Cn1nc(-c2ccccn2)c2c1NCCSC2c1ccc(-c2ccc(S(C)(=O)=O)nc2)cc1Cl (stereo not shown) [U.13] |  | 100 to 1000
50 | CC(=O)N1CCN(c2ccc(-c3ccc(C4SCCNc5c4c(-c4ccccn4)nn5C)c(Cl)c3)cn2)CC1 (stereo not shown) [U.14] |  | 1000 to 10000
51 | COCCn1cc(-c2ccc(C3SCCNc4c3c(-c3ccccn3)nn4C)c(Cl)c2)cn1 (stereo not shown) [U.15] |  | 1000 to 10000
52 | Cn1nc(-c2ccccn2)c2c1NCCSC2c1ccc(-c2cnn(CCC#N)c2)cc1Cl (stereo not shown) [U.16] |  | 100 to 1000
53 | Cn1nc(-c2ccccn2)c2c1NCCSC2c1ccc(-c2cnn(CC(N)=O)c2)cc1Cl (stereo not shown) [U.17] |  | 100 to 1000
54 | Cn1nc(-c2ccccn2)c2c1NCCSC2c1ccc(-c2cnn(CCC(N)=O)c2)cc1Cl (stereo not shown) [U.18] |  | 100 to 1000
55 | Cn1nc(-c2ccccn2)c2c1NCCSC2c1ccc(-c2cnc(N3CCOCC3)nc2)cc1Cl (stereo not shown) [U.19] |  | 1000 to 10000
